Here are results for five molecules from ChEMBL document CHEMBL4024787, “Target Identification and Mode of Action of Four Chemically Divergent Drugs against Ebolavirus Infection” (J Med Chem, 2018).

The target of experiment [1] is T1, Envelope glycoprotein (Zaire ebolavirus (strain Mayinga-76) (ZEBOV) (Zaire Ebola virus)) (UniProt Q05320).
T1 sequence (whole entry): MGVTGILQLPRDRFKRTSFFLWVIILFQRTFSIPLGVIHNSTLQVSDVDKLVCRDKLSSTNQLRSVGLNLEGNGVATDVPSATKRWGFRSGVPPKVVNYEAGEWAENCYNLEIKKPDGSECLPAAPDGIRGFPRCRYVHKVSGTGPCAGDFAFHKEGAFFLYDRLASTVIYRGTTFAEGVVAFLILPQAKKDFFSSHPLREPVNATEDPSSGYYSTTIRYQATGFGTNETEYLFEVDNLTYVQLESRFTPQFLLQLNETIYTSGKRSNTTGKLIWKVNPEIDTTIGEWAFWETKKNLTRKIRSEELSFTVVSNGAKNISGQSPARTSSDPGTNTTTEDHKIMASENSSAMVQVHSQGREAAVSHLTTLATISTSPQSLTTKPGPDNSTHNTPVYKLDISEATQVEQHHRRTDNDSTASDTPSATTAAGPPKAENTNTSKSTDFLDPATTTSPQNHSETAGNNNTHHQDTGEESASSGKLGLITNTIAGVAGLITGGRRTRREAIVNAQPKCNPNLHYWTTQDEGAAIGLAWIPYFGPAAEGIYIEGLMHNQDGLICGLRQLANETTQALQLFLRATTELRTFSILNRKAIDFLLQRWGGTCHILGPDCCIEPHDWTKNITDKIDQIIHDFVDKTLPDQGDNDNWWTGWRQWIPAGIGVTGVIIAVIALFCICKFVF
In words: Binding affinity to Ebola virus Zaire Mayinga-76 recombinant GP protein assessed as change in melting temperature at 500 uM by SYPRO orange dye-based fluorescence assay. The note with it: 1976.

Experiment [2] deals with Ebolavirus. In words: microbe, parasite or virus in culture. The note with it: Orthoebolavirus, HepG2, 48 h. In kind it is functional, cell-based.
For experiment [3], the system named is Ebolavirus. Put plainly: microbe, parasite or virus in culture. The note with it: Orthoebolavirus, Vero C1008, 48 h. The format is functional.
In another experiment the target is T2, Envelope glycoprotein (Zaire ebolavirus (strain Mayinga-76) (ZEBOV) (Zaire Ebola virus), UniProt Q05320).
T2 sequence (Q05320 whole entry): T1 sequence (whole entry)
In words: Binding affinity to Ebola virus Zaire Mayinga-76 recombinant GP protein by SYPRO orange dye-based fluorescence assay. On the set-up: species or system 1976.

Usually ΔTm stands for the shift of the melting midpoint relative to a reference. As for `CN1[C@@H]2CC[C@@H]1CC(OC(c1ccccc1)c1ccccc1)C2` (relative stereo), in experiment [1], the ΔTm was -6 °C.
The IC50 is the concentration that gives 50% inhibition. Higher therefore signals lower potency. The Kd is the free concentration of one partner at which half of the binding sites on the other are occupied at equilibrium, for simple one-to-one binding. On to `CC(C)COCC(CN(Cc1ccccc1)c1ccccc1)N1CCCC1` (configuration not stated) [BEPRIDIL], for which the IC50 in the experiment with Ebolavirus [2] was 3210 nM; with Ebolavirus [3] it was 5.08 µM. Further, the ΔTm in experiment [1] is -6 °C. Besides, the Kd on Envelope glycoprotein was found to be 290 µM.
For `Fc1ccc([C@@H]2CCNC[C@H]2COc2ccc3c(c2)OCO3)cc1` [PAROXETINE], the IC50 was 1380 nM with Ebolavirus [2] and 7.45 µM in the experiment on Ebolavirus [3]. Moreover, the ΔTm in experiment [1] is -4 °C. Moreover, at Envelope glycoprotein, the Kd came out at 650 µM.
With `CN[C@H]1CC[C@@H](c2ccc(Cl)c(Cl)c2)c2ccccc21` [SERTRALINE], the ΔTm in experiment [1] was -3 °C.
Consider `CN(C)CCOc1ccc(/C(=C(/CCCl)c2ccccc2)c2ccccc2)cc1` [TOREMIFENE], for which the IC50 amounted to 26 nM in the experiment on Ebolavirus [2] and 0.162 µM in the experiment with Ebolavirus [3].
